# Results published in patent publication US12259378B2, “Dynamic clamps and methods of use thereof” (priority 2018, dated 2025).
# “Also recorded” adds a separate entry of the source. Read-outs that look alike come from different tables or passages of the source.
# Assays:
# [1] = test system: patients with R1882Q mutation; conditions: human, in vivo; cited from earlier work
# [2] = test system: patients with R1882Q mutation; conditions: human, in vivo
# From the text: (§1) All patients, or their parents or legal guardian in the case of minors or individuals with intellectual disability, gave written informed consent. The study was approved by the Human Research Ethics Committee of Austin Health, Melbourne.
# (§2) Clinical data was collated from the literature for previously reported individuals (N=14), with updated clinical information obtained in one patient. Individuals whose clinical data was not previously published (N=5), had their mutations identified through clinical testing. Detailed phone or clinical interviews with these parents were undertaken by paediatric epileptologists (KBH, MRC), home videos were reviewed and medical records from the treating neurologist obtained.
# [3] = test system: patients with R853Q mutation; conditions: human, in vivo
# From the text: as §1, §2
# [4] = test system: patients with R853Q mutation; conditions: human, in vivo; cited from earlier work
# human Nav 1.2 channel = human Nav 1.2 channel (Homo sapiens, UniProt Q99250, R1882Q)
# human Nav 1.2 channel, sequence (Q99250 whole entry R1882Q, looked up): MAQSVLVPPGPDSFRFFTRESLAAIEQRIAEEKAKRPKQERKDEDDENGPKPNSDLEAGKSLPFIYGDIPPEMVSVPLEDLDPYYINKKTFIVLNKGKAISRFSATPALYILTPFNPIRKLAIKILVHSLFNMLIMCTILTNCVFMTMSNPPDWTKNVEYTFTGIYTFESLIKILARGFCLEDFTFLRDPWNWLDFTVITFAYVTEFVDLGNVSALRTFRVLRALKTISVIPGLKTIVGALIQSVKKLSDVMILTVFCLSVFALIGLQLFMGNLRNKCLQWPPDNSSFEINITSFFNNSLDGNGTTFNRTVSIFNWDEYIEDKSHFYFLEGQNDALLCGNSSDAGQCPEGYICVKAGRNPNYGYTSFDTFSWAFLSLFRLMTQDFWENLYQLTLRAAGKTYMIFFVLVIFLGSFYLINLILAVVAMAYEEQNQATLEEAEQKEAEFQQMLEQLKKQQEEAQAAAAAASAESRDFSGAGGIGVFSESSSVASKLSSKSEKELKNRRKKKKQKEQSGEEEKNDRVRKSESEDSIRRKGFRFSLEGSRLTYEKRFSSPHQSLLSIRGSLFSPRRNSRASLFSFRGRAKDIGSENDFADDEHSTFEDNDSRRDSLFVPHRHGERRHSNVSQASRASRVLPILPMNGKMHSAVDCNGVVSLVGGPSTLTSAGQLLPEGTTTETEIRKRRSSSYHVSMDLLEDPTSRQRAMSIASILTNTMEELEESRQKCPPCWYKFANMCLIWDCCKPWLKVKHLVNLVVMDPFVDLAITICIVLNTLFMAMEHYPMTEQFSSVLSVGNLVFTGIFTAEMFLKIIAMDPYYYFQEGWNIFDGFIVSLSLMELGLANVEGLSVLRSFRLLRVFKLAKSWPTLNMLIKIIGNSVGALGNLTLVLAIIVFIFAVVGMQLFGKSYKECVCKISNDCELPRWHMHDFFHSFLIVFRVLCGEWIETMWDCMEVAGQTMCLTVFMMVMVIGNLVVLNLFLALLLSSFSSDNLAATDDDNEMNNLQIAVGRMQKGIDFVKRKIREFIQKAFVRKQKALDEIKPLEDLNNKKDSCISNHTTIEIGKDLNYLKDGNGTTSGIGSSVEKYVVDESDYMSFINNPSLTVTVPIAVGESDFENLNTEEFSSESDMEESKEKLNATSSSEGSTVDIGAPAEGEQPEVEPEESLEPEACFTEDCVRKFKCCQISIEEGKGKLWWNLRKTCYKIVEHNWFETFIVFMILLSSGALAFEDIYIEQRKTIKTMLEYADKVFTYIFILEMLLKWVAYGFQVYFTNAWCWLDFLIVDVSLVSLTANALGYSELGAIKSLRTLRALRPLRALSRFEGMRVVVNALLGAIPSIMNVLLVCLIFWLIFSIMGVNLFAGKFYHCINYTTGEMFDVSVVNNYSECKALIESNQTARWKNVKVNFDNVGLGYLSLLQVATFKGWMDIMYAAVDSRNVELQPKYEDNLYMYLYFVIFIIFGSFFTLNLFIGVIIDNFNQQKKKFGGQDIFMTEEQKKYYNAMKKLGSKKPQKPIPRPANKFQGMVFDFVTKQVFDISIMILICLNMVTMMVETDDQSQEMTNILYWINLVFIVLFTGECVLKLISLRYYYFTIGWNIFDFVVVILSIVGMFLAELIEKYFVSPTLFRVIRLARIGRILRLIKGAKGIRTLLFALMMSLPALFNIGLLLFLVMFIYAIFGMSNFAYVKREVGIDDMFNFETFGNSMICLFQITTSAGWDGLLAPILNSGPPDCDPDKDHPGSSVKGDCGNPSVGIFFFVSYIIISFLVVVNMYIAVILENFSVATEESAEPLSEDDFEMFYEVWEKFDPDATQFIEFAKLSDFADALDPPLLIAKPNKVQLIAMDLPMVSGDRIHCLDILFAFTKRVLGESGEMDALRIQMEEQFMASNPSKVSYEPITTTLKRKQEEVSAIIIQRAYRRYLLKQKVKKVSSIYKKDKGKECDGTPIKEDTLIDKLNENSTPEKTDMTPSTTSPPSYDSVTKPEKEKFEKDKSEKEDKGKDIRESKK
molecule,measurement,setting,value
"O=C1NC(=O)C(c2ccccc2)(c2ccccc2)N1 [PHT, phenytoin]",PHT response,[1],No effect
same,Adverse effect with phenytoin loads (movement disorder),[2],‘continuous thrashing’
same,PHT response,[2],Benefit
same,"Seizure control, summary over patients",[2],some showed marked improvement; also recorded: improved seizure control in two and no definite effect on seizures in three; also recorded: some patients with R1882Q mutations become seizure free; also recorded: not universal
same,PHT response,[3],No effect
same,PHT response,[4],No effect
CC1OC(C)OC(C)O1 (stereo not shown) [paraldehyde],Other AED response,[3],Benefit
NC1=N[C@H](O)[C@H]2[C@H]3O[C@]4(O)O[C@@H]([C@@H](O)[C@@]2(N1)[C@@H]4O)[C@]3(O)CO [tetrodotoxin],Sensitivity of persistent INa to tetrodotoxin,human Nav 1.2 channel,sensitive
"adrenocorticotropic hormone (SYSMEHFRWGKPVGKKRRPVKVYPNGAEDESAEAFPLEF; Corticotropin; UniProt P01189 138-176, looked up) [ACTH]",Other AED response,[3],Benefit
same,"Seizure control, summary over patients",[3],beneficial in four patients
same,Other AED response,[4],Benefit
"Nc1nnc(-c2cccc(Cl)c2Cl)c(N)n1 [LTG, lamotrigine]",Other sodium channel blocker response,[1],no effect
"CC1(C)O[C@@H]2[C@@H](CO[C@@]3(COS(N)(=O)=O)OC(C)(C)O[C@@H]23)O1 [TPM, topiramate]",Other AED response,[4],Benefit
"C=CC(N)CCC(=O)O (stereo not shown) [VGB, vigabatrin]","Seizure control, summary over patients",[3],beneficial in one and exacerbated seizures in three
same,Other AED response,[4],Benefit
L-Dopa/Carbidopa,Improvement of movement disorder,[3],Improvement
"CCCC(CCC)C(=O)O [VPA, valproic acid]",Other AED response,[2],Benefit
same,Other AED response,[4],Benefit
"NC(=O)N1c2ccccc2C=Cc2ccccc21 [CBZ, carbamazepine]","Seizure control, summary over patients",[2],Seizures were improved
same,Other sodium channel blocker response,[3],benefit
"C=C(C)[C@@H]1CCC(C)=C[C@H]1c1c(O)cc(CCCCC)cc1O [CBD, cannabidiol]",Other AED response,[2],Benefit
"NC(=O)N1c2ccccc2CC(=O)c2ccccc21 [OXC, oxcarbazepine]",Other sodium channel blocker response,[1],no effect
same,Other sodium channel blocker response,[3],seizure control remained good
"CCCCCc1cc(O)c2c(c1)OC(C)(C)[C@@H]1CCC(C)=C[C@@H]21 [THC, tetrahydrocannabinol]",Other AED response,[3],Benefit
CCCCCCC(=O)OCC(COC(=O)CCCCCC)OC(=O)CCCCCC [triheptanoin],Other AED response,[2],Benefit
same,Improvement of movement disorder,[3],Improvement
same,Other AED response,[3],Benefit
"CN1C(=O)CC(=O)N(c2ccccc2)c2cc(Cl)ccc21 [CLB, clobazam]",Other AED response,[4],Benefit
